The numbers were not newly measured in patent publication US8192775B2, “Crystallization of polyol compositions, crystalline polyol composition product and use thereof” (Danisco Sweeteners Oy, priority 2002, dated 2012), which cites them from elsewhere.

For the data set the following is noted: water at 20° C.

On to `OC[C@@H](O)[C@@H](O[C@H]1O[C@H](CO)[C@@H](O)[C@H](O)[C@H]1O)[C@H](O)[C@@H](O)CO` [Maltitol], for which the solubility in water is recorded as 62 % (w/w).
On to `OC[C@@H](O)[C@H](O)[C@@H](O)CO` [Xylitol], for which the solubility in water is 63 (w/w).
